Measurements taken from patent publication US9695155B2, “Herbicidal substituted pyrimidinyloxy benzene compounds” (E. I. DU PONT DE NEMOURS AND COMPANY, priority 2013, dated 2017).

Experiments:
pigweed [1] = assay: Test A postemergence; type: in vivo, Amaranthus retroflexus
How it was run: (§1)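 Compounds in non-phytotoxic solvent with surfactant applied as soil spray preemergence, or postemergence to plants 2-10 cm at one- to two-leaf stage, in loam/sand. After approximately 10 days in greenhouse, injury rated visually versus untreated controls, 0 (no effect) to 100 (complete control).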

soybean = assay: Test C postemergence; type: in vivo, Glycine max; conditions: for Plant response rating, Soybean / Soybean plant response rating: scale 0 to 100 (0 no effect, 100 complete control)
How it was run: (§2)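 Sown in loam/sand → sprayed pre-emergence; or grown to 1–4 leaves in peat mix → sprayed post-emergence. Same solvent/surfactant formulation both ways. Greenhouse 13–15 d. Score 0–100 visual.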

morningglory = assay: Test A preemergence; type: in vivo, Ipomoea spp.
How it was run: as §1

large (Lg) crabgrass = assay: Test C postemergence; type: in vivo, Digitaria sanguinalis; conditions: for Plant response rating, Crabgrass, Large / Crabgrass, Large plant response rating: scale 0 to 100 (0 no effect, 100 complete control)
How it was run: as §2

velvetleaf = assay: Test C postemergence; type: in vivo, Abutilon theophrasti; conditions: for Plant response rating, Velvetleaf / Velvetleaf plant response rating: scale 0 to 100 (0 no effect, 100 complete control)
How it was run: as §2

wheat [2] = assay: Test A preemergence; type: in vivo, Triticum aestivum
How it was run: as §1

oilseed rape = assay: Test C postemergence; type: in vivo, Brassica napus; conditions: for Plant response rating, Oilseed Rape / Oilseed Rape plant response rating: scale 0 to 100 (0 no effect, 100 complete control)
How it was run: as §2

sedge, umbrella = assay: Test B flooded paddy test; type: in vivo, Cyperus difformis; conditions: Flood, 250 g ai/ha; 0 to 100 scale where 0 is no effect and 100 is complete control
How it was run: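 Greenhouse flooded-pot test: compounds dosed into 3 cm standing water over 2-leaf plants, flood held constant. Rated visually after 13–15 days on 0–100 (complete control = 100); a dash marks no test result.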

pigweed [3] = assay: Test A preemergence; type: in vivo, Amaranthus retroflexus
How it was run: as §1

wheat [4] = assay: Test A postemergence; type: in vivo, Triticum aestivum
How it was run: as §1

yellow nutsedge = assay: Test C postemergence; type: in vivo, Cyperus esculentus; conditions: for Plant response rating, Nutsedge, Yellow / Nutsedge, Yellow plant response rating: scale 0 to 100 (0 no effect, 100 complete control)
How it was run: as §2

giant foxtail = assay: Test C postemergence; type: in vivo, Setaria faberii; conditions: for Plant response rating, Foxtail, Giant / Foxtail, Giant plant response rating: scale 0 to 100 (0 no effect, 100 complete control)
How it was run: as §2

johnsongrass = assay: Test C postemergence; type: in vivo, Sorghum halepense; conditions: for Plant response rating, Johnsongrass / Johnsongrass plant response rating: scale 0 to 100 (0 no effect, 100 complete control); for Johnsongrass plant response rating: 31 g ai/ha
How it was run: as §2

[5] = 125 g ai/ha, 0 to 100 scale where 0 is no effect and 100 is complete control
[6] = 500 g ai/ha, 0 to 100 scale where 0 is no effect and 100 is complete control
[7] = Postemergence, 31 g ai/ha, 13 to 15 days
[8] = 500 g ai/ha, 0 to 100 scale, 0 no effect, 100 complete control, approx. 10 days
[9] = 1000 g ai/ha, 0 to 100 scale, 0 no effect, 100 complete control
[10] = 16 g ai/ha, postemergence, 0 is no effect, 100 is complete control
[11] = 31 g ai/ha, postemergence, visual rating, 13 to 15 days
[12] = 125 g ai/ha, postemergence, visual rating
[13] = postemergence, visual rating, 13 to 15 days
[14] = 125 g ai/ha, 0 to 100 scale, 0 no effect, 100 complete control
[15] = Postemergence, 62 g ai/ha, 13 to 15 days

## N#Cc1cccc(Oc2ncc(Cl)cn2)c1-n1cnc(Br)c1 [Compound 74]
Pigweed [1]; [5]
  Plant response rating, Pigweed: 100
Pigweed [1]; [6]
  Plant response rating, Pigweed: 100
soybean; 125 g ai/ha, postemergence
  Plant response rating (0 to 100), Soybean: 75
soybean; 250 g ai/ha, postemergence
  Plant response rating (0 to 100), Soybean: 80
soybean; [7]
  Plant response rating, Soybean: 40
soybean; Postemergence, 62 g ai/ha
  Plant response rating, Soybean: 65
morningglory; [5]
  Plant response rating, Morningglory: 70
morningglory; [8]
  Morningglory plant response rating: 100
Large (Lg) crabgrass; 125 g ai/ha, postemergence
  Plant response rating (0 to 100), Crabgrass, Large: 15
Large (Lg) crabgrass; 250 g ai/ha, postemergence
  Plant response rating (0 to 100), Crabgrass, Large: 20
Large (Lg) crabgrass; [7]
  Plant response rating, Crabgrass, Large: 5
Large (Lg) crabgrass; Postemergence, 62 g ai/ha
  Plant response rating, Crabgrass, Large: 5
velvetleaf; 125 g ai/ha, postemergence
  Plant response rating (0 to 100), Velvetleaf: 50
velvetleaf; 250 g ai/ha, postemergence
  Plant response rating (0 to 100), Velvetleaf: 65
velvetleaf; [7]
  Plant response rating, Velvetleaf: 30
velvetleaf; Postemergence, 62 g ai/ha
  Plant response rating, Velvetleaf: 35
Wheat [2]; [5]
  Plant response rating, Wheat: 0
Wheat [2]; [8]
  Wheat plant response rating: 40
Oilseed rape; 125 g ai/ha, postemergence
  Plant response rating (0 to 100), Oilseed Rape: 40
Oilseed rape; 250 g ai/ha, postemergence
  Plant response rating (0 to 100), Oilseed Rape: 65
Oilseed rape; [7]
  Plant response rating, Oilseed Rape: 35
Oilseed rape; Postemergence, 62 g ai/ha
  Plant response rating, Oilseed Rape: 40
sedge, umbrella
  Plant response rating, Sedge, Umbrella: 70
Pigweed [3]; [5]
  Plant response rating, Pigweed: 100
Pigweed [3]; [8]
  Pigweed plant response rating: 100
Wheat [4]; [5]
  Plant response rating, Wheat: 0
Wheat [4]; [6]
  Plant response rating, Wheat: 50
Yellow nutsedge; 125 g ai/ha, postemergence
  Plant response rating (0 to 100), Nutsedge, Yellow: 0
Yellow nutsedge; 250 g ai/ha, postemergence
  Plant response rating (0 to 100), Nutsedge, Yellow: 0
Yellow nutsedge; [7]
  Plant response rating, Nutsedge, Yellow: 0
Yellow nutsedge; Postemergence, 62 g ai/ha
  Plant response rating, Nutsedge, Yellow: 0
Giant foxtail; 125 g ai/ha, postemergence
  Plant response rating (0 to 100), Foxtail, Giant: 10
Giant foxtail; 250 g ai/ha, postemergence
  Plant response rating (0 to 100), Foxtail, Giant: 20
Giant foxtail; [7]
  Plant response rating, Foxtail, Giant: 5
Giant foxtail; Postemergence, 62 g ai/ha
  Plant response rating, Foxtail, Giant: 5
johnsongrass; 125 g ai/ha, postemergence
  Plant response rating (0 to 100), Johnsongrass: 25
johnsongrass; 250 g ai/ha, postemergence
  Plant response rating (0 to 100), Johnsongrass: 25
johnsongrass; Postemergence, 62 g ai/ha
  Plant response rating, Johnsongrass: 0

## Fc1cccc(Oc2ncc(Cl)cn2)c1-n1cc(C2CC2)nn1 [Compound 155]
Pigweed [1]; [9]
  Plant response rating, Pigweed: 100
soybean; [10]
  Plant response rating (0 to 100), Soybean: 5
soybean; [11]
  Soybean plant response rating: 70
soybean; [12]
  Plant response rating, Soybean: 80
soybean; Postemergence, 62 g ai/ha
  Plant response rating, Soybean: 75
Large (Lg) crabgrass; [10]
  Plant response rating (0 to 100), Crabgrass, Large: 5
Large (Lg) crabgrass; [11]
  Crabgrass, Large plant response rating: 5
Large (Lg) crabgrass; [12]
  Plant response rating, Crabgrass, Large: 15
Large (Lg) crabgrass; Postemergence, 62 g ai/ha
  Plant response rating, Crabgrass, Large: 5
velvetleaf; [10]
  Plant response rating (0 to 100), Velvetleaf: 45
velvetleaf; [11]
  Velvetleaf plant response rating: 75
velvetleaf; [12]
  Plant response rating, Velvetleaf: 85
velvetleaf; Postemergence, 62 g ai/ha
  Plant response rating, Velvetleaf: 70
Oilseed rape; [10]
  Plant response rating (0 to 100), Oilseed Rape: 60
Oilseed rape; [11]
  Oilseed Rape plant response rating: 50
Oilseed rape; [12]
  Plant response rating, Oilseed Rape: 80
Oilseed rape; Postemergence, 62 g ai/ha
  Plant response rating, Oilseed Rape: 50
sedge, umbrella
  Plant response rating, Sedge, Umbrella: 80
Pigweed [3]; 1000 g ai/ha, 0 to 100 scale, 0 no effect, 100 complete control, approx. 10 days
  Pigweed plant response rating: 100
Wheat [4]; [9]
  Plant response rating, Wheat: 90
Yellow nutsedge; [10]
  Plant response rating (0 to 100), Nutsedge, Yellow: 5
Yellow nutsedge; [11]
  Nutsedge, Yellow plant response rating: 5
Yellow nutsedge; [12]
  Plant response rating, Nutsedge, Yellow: 5
Yellow nutsedge; Postemergence, 62 g ai/ha
  Plant response rating, Nutsedge, Yellow: 5
Giant foxtail; [10]
  Plant response rating (0 to 100), Foxtail, Giant: 0
Giant foxtail; [11]
  Foxtail, Giant plant response rating: 5
Giant foxtail; [12]
  Plant response rating, Foxtail, Giant: 25
Giant foxtail; Postemergence, 62 g ai/ha
  Plant response rating, Foxtail, Giant: 15
johnsongrass; [10]
  Plant response rating (0 to 100), Johnsongrass: 0
johnsongrass; [13]
  Johnsongrass plant response rating: 0
johnsongrass; [12]
  Plant response rating, Johnsongrass: 5
johnsongrass; Postemergence, 62 g ai/ha
  Plant response rating, Johnsongrass: 5

## N#Cc1cccc(Oc2ncc(Cl)cn2)c1-n1cc(-n2ccc(C(F)(F)F)n2)cn1 [Compound 284]
Pigweed [1]; [14]
  Plant response rating, Pigweed: 100
Pigweed [1]; [6]
  Plant response rating, Pigweed: 100
soybean; [11]
  Soybean plant response rating: 35
soybean; [12]
  Plant response rating, Soybean: 85
soybean; 250 g ai/ha, postemergence
  Plant response rating (0 to 100), Soybean: 65
soybean; [15]
  Plant response rating, Soybean: 40
Large (Lg) crabgrass; [11]
  Crabgrass, Large plant response rating: 5
Large (Lg) crabgrass; [12]
  Plant response rating, Crabgrass, Large: 10
Large (Lg) crabgrass; 250 g ai/ha, postemergence
  Plant response rating (0 to 100), Crabgrass, Large: 10
Large (Lg) crabgrass; [15]
  Plant response rating, Crabgrass, Large: 5
velvetleaf; [11]
  Velvetleaf plant response rating: 15
velvetleaf; [12]
  Plant response rating, Velvetleaf: 30
velvetleaf; 250 g ai/ha, postemergence
  Plant response rating (0 to 100), Velvetleaf: 70
velvetleaf; [15]
  Plant response rating, Velvetleaf: 15
Oilseed rape; [11]
  Oilseed Rape plant response rating: 70
Oilseed rape; [12]
  Plant response rating, Oilseed Rape: 80
Oilseed rape; 250 g ai/ha, postemergence
  Plant response rating (0 to 100), Oilseed Rape: 80
Oilseed rape; [15]
  Plant response rating, Oilseed Rape: 70
sedge, umbrella
  Plant response rating, Sedge, Umbrella: 85
Pigweed [3]; 125 g ai/ha
  Pigweed plant response rating (0 to 100 scale): 100
Pigweed [3]; [6]
  Pigweed plant response rating: 100
Wheat [4]; [14]
  Plant response rating, Wheat: 20
Wheat [4]; [6]
  Plant response rating, Wheat: 20
Yellow nutsedge; [11]
  Nutsedge, Yellow plant response rating: 0
Yellow nutsedge; [12]
  Plant response rating, Nutsedge, Yellow: 0
Yellow nutsedge; 250 g ai/ha, postemergence
  Plant response rating (0 to 100), Nutsedge, Yellow: 5
Yellow nutsedge; [15]
  Plant response rating, Nutsedge, Yellow: 0
Giant foxtail; [11]
  Foxtail, Giant plant response rating: 10
Giant foxtail; [12]
  Plant response rating, Foxtail, Giant: 20
Giant foxtail; 250 g ai/ha, postemergence
  Plant response rating (0 to 100), Foxtail, Giant: 25
Giant foxtail; [15]
  Plant response rating, Foxtail, Giant: 10
johnsongrass; [13]
  Johnsongrass plant response rating: 5
johnsongrass; [12]
  Plant response rating, Johnsongrass: 20
johnsongrass; 250 g ai/ha, postemergence
  Plant response rating (0 to 100), Johnsongrass: 20
johnsongrass; [15]
  Plant response rating, Johnsongrass: 5
